From US9353107B2 (Aurigene Discovery Technologies Limited, priority 2012, dated 2016)
Where a name gives a salt, the structure may show the parent alone.

Target: T1, recombinant human ALK enzyme (ALK WT) (Homo sapiens, UniProt Q9UM73)
T1 construct: purchased Carna Biosciences 08-518
Assay: ALK WT cell free enzymatic assay (TR-FRET)
Assay type: biochemical
Details: 1 μM ATP; for IC50: 10 point dose response; for inhibition at 0.1 µM: compound at 100 nM; for inhibition at 0.1 µM / inhibition at 1 µM: 30 min pre-incubation; for inhibition at 1 µM: compound at 1 μM
How it was run: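 Recombinant human ALK with 40 nM Ultra Light Poly GT, 1 μM ATP and Eu anti-phosphotyrosine antibody, 1% DMSO, pH 7.1 HEPES; 30 min enzyme-compound pre-incubation, then 30 min reaction. TR-FRET 665/615 ratio; percent inhibition at 100 nM and 1 μM, IC50 from 10-point sigmoidal fit.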

T1 sequence (Q9UM73 1058-1620 limits assumed): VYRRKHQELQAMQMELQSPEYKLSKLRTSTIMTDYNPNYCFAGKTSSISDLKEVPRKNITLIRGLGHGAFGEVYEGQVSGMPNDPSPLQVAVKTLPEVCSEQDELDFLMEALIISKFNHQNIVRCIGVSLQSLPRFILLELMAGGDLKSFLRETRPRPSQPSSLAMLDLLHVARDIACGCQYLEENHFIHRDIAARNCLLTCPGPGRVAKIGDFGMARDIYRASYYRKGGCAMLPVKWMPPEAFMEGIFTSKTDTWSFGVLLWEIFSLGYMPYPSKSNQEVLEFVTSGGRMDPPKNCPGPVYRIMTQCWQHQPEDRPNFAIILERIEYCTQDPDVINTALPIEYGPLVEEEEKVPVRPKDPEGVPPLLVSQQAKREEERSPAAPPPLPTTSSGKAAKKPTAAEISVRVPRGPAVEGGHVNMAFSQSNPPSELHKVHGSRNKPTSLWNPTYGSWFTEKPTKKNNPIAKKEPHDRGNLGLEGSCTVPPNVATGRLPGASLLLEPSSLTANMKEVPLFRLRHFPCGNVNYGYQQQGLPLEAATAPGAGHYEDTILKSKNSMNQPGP

IC50 [nM]	inhibition at 0.1 µM [%]	inhibition at 1 µM [%]	Compound
50 to 250	83	99	c1ccc(CCn2cc(-c3c[nH]c4ncc(-c5cccc(NC6CCNCC6)c5)cc34)cn2)cc1 [Example 95, N-(3-(3-(1-phenethyl-1H-pyrazol-4-yl)-1H-pyrrolo[2,3-b]pyridin-5-yl)phenyl)piperidin-4-amine]
< 50	70	100	Cc1nn(Cc2cccc(F)c2)c(C)c1-c1c[nH]c2ncc(-c3cccc(OC4CCNCC4)c3)cc12 [Example 96, 3-(1-(3-fluorobenzyl)-3,5-dimethyl-1H-pyrazol-4-yl)-5-(3-(piperidin-4-yloxy)phenyl)-1H-pyrrolo[2,3-b]pyridine]
< 50	76	98	c1ccc(CCn2cc(-c3c[nH]c4ncc(-c5cccc(OC6CCNCC6)c5)cc34)cn2)cc1 [Example 97, 3-(1-phenethyl-1H-pyrazol-4-yl)-5-(3-(piperidin-4-yloxy)phenyl)-1H-pyrrolo[2,3-b]pyridine]
50 to 250	24	95	c1ccc(CCn2cc(-c3c[nH]c4ncc(-c5cccc(CC6CCNCC6)c5)cc34)cn2)cc1 [Example 98, 3-(1-phenethyl-1H-pyrazol-4-yl)-5-(3-(piperidin-4-ylmethyl)phenyl)-1H-pyrrolo[2,3-b]pyridine]
< 50	89	99	Cc1nn(Cc2cccc(F)c2)c(C)c1-c1c[nH]c2ncc(-c3cccc(CC4CCNCC4)c3)cc12 [Example 99, 3-(1-(3-fluorobenzyl)-3,5-dimethyl-1H-pyrazol-4-yl)-5-(3-(piperidin-4-ylmethyl)phenyl)-1H-pyrrolo[2,3-b]pyridine]
< 50	100	100	Fc1cccc(Cn2cc(-c3c[nH]c4ncc(-c5ccc(NC6CCNCC6)cc5)cc34)cn2)c1 [Example 100, N-(4-(3-(1-(3-fluorobenzyl)-1H-pyrazol-4-yl)-1H-pyrrolo[2,3-b]pyridin-5-yl)phenyl)piperidin-4-amine]
< 50	99	100	Cc1nn(Cc2cccc(F)c2)c(C)c1-c1c[nH]c2ncc(-c3ccc(NC4CCNCC4)cc3)cc12 [Example 101, N-(4-(3-(1-(3-fluorobenzyl)-3,5-dimethyl-1H-pyrazol-4-yl)-1H-pyrrolo[2,3-b]pyridin-5-yl)phenyl)piperidin-4-amine]
< 50	91	100	Fc1cccc(Cn2cc(-c3c[nH]c4ncc(-c5cccc(CC6CCNCC6)c5)cc34)cn2)c1 [Example 102, 3-(1-(3-fluorobenzyl)-1H-pyrazol-4-yl)-5-(3-(piperidin-4-ylmethyl)phenyl)-1H-pyrrolo[2,3-b]pyridine]
< 50	91	94	C[C@H](O)CN1CCC(c2ccc(-c3cnc4[nH]cc(-c5cnn(Cc6cccc(F)c6)c5)c4c3)cn2)CC1 [Example 102A, (S)-1-(4-(5-(3-(1-(3-fluorobenzyl)-1H-pyrazol-4-yl)-1H-pyrrolo[2,3-b]pyridin-5-yl)pyridin-2-yl)piperidin-1-yl)propan-2-ol]
< 50	95	100	NC(=O)CN1CCN(c2ccc(-c3cnc4[nH]cc(-c5cnn(Cc6cccc(F)c6)c5)c4c3)cc2)CC1 [Example 103, 2-(4-(4-(3-(1-(3-fluorobenzyl)-1H-pyrazol-4-yl)-1H-pyrrolo[2,3-b]pyridin-5-yl)phenyl)piperazin-1-yl)acetamide]
< 50	98	100	C[C@H](O)CN1CCN(c2ccc(-c3cnc4[nH]cc(-c5cnn(Cc6cccc(F)c6)c5)c4c3)cc2)CC1 [Example 104, (S)-1-(4-(4-(3-(1-(3-fluorobenzyl)-1H-pyrazol-4-yl)-1H-pyrrolo[2,3-b]pyridin-5-yl)phenyl)piperazin-1-yl)propan-2-ol]
< 50	98	100	Nc1cc(-c2cnc3[nH]cc(-c4cnn(Cc5cccc(F)c5)c4)c3c2)ccc1N1CCNCC1 [Example 105, 5-(3-(1-(3-fluorobenzyl)-1H-pyrazol-4-yl)-1H-pyrrolo[2,3-b]pyridin-5-yl)-2-(piperazin-1-yl) aniline]
< 50	97	100	CS(=O)(=O)Nc1cc(-c2cnc3[nH]cc(-c4cnn(Cc5cccc(F)c5)c4)c3c2)ccc1N1CCNCC1 [Example 106, N-(5-(3-(1-(3-fluorobenzyl)-1H-pyrazol-4-yl)-1H-pyrrolo[2,3-b]pyridin-5-yl)-2-(piperazin-1-yl)phenyl)methanesulfonamide hydrochloride]
< 50	99	100	CS(=O)(=O)Nc1cc(-c2cnc3[nH]cc(-c4cnn(CCc5ccccc5)c4)c3c2)ccc1N1CCNCC1 [Example 107, N-(5-(3-(1-phenethyl-1H-pyrazol-4-yl)-1H-pyrrolo[2,3-b]pyridin-5-yl)-2-(piperazin-1-yl)phenyl) methanesulfonamide hydrochloride]
< 50	97	100	NC(=O)N1CCN(c2ccc(-c3cnc4[nH]cc(-c5cnn(Cc6cccc(F)c6)c5)c4c3)cc2)CC1 [Example 108, 4-(4-(3-(1-(3-fluorobenzyl)-1H-pyrazol-4-yl)-1H-pyrrolo[2,3-b]pyridin-5-yl)phenyl)piperazine-1-carboxamide]
	76	100	CN1CCN(c2ccc(-c3cnc4[nH]cc(-c5cnn(CCc6ccccc6)c5)c4c3)cc2)CC1 [Example 109, 5-(4-(4-methylpiperazin-1-yl)phenyl)-3-(1-phenethyl-1H-pyrazol-4-yl)-1H-pyrrolo[2,3-b]pyridine]
< 50	94	98	CS(=O)(=O)Nc1cc(-c2cnc3[nH]cc(-c4cnn(Cc5cccc(F)c5)c4)c3c2)ccc1N1CCN(CC(N)=O)CC1 [Example 110, 2-(4-(4-(3-(1-(3-fluorobenzyl)-1H-pyrazol-4-yl)-1H-pyrrolo[2,3-b]pyridin-5-yl)-2-(methylsulfonamido)phenyl)piperazin-1-yl)acetamide]
< 50	82	100	Fc1cc(F)cc(Cn2ccc(-c3c[nH]c4ncc(-c5ccc(N6CCNCC6)cc5)cc34)n2)c1 [Example 111, 3-(1-(3,5-difluorobenzyl)-1H-pyrazol-3-yl)-5-(4-(piperazin-1-yl)phenyl)-1H-pyrrolo[2,3-b]pyridine]
	90	100	COc1cc(-c2cnc3[nH]cc(-c4cnn(Cc5cccc(F)c5)c4)c3c2)ccc1N1CCN(C[C@H](C)O)CC1 [Example 112, (S)-1-(4-(4-(3-(1-(3-fluorobenzyl)-1H-pyrazol-4-yl)-1H-pyrrolo[2,3-b]pyridin-5-yl)-2-methoxyphenyl)piperazin-1-yl)propan-2-ol]
< 50	90	97	CS(=O)(=O)Nc1cc(-c2cnc3[nH]cc(-c4ccn(Cc5cc(F)cc(F)c5)n4)c3c2)ccc1N1CCNCC1 [Example 113, N-(5-(3-(1-(3,5-difluorobenzyl)-1H-pyrazol-3-yl)-1H-pyrrolo[2,3-b]pyridin-5-yl)-2-(piperazin-1-yl)phenyl)methanesulfonamide]
	92	99	C[C@H](O)CN1CCN(c2ccc(-c3cnc4[nH]cc(-c5cnn(Cc6cccc(F)c6)c5)c4c3)cc2F)CC1 [Example 114, (S)-1-(4-(2-fluoro-4-(3-(1-(3-fluorobenzyl)-1H-pyrazol-4-yl)-1H-pyrrolo[2,3-b]pyridin-5-yl)phenyl)piperazin-1-yl)propan-2-ol]
	94	100	Cc1cc(-c2cnc3[nH]cc(-c4cnn(Cc5cccc(F)c5)c4)c3c2)ccc1N1CCN(C[C@H](C)O)CC1 [Example 115, (S)-1-(4-(4-(3-(1-(3-fluorobenzyl)-1H-pyrazol-4-yl)-1H-pyrrolo[2,3-b]pyridin-5-yl)-2-methylphenyl)piperazin-1-yl)propan-2-ol]
50 to 250	68	97	COc1cc(N2CCN(C[C@H](C)O)CC2)ccc1-c1cnc2[nH]cc(-c3cnn(Cc4cccc(F)c4)c3)c2c1 [Example 116, (S)-1-(4-(4-(3-(1-(3-fluorobenzyl)-1H-pyrazol-4-yl)-1H-pyrrolo[2,3-b]pyridin-5-yl)-3-methoxyphenyl)piperazin-1-yl)propan-2-ol]
< 50	91	95	C[C@H](O)CN1CCN(c2ccc(-c3cnc4[nH]cc(-c5cnn(CCc6ccccc6)c5)c4c3)cc2)CC1 [Example 117, (S)-1-(4-(4-(3-(1-phenethyl-1H-pyrazol-4-yl)-1H-pyrrolo[2,3-b]pyridin-5-yl)phenyl)piperazin-1-yl)propan-2-ol]
< 50	94	98	C[C@H](O)CN1CCN(c2ccc(-c3cnc4[nH]cc(-c5cnn(Cc6ccccc6)c5)c4c3)cc2)CC1 [Example 118, (S)-1-(4-(4-(3-(1-benzyl-1H-pyrazol-4-yl)-1H-pyrrolo[2,3-b]pyridin-5-yl)phenyl)piperazin-1-yl)propan-2-ol]
< 50	86	93	Cc1cccc(Cn2cc(-c3c[nH]c4ncc(-c5ccc(N6CCN(C[C@H](C)O)CC6)cc5)cc34)cn2)c1 [Example 119, (S)-1-(4-(4-(3-(1-(3-methylbenzyl)-1H-pyrazol-4-yl)-1H-pyrrolo[2,3-b]pyridin-5-yl)phenyl)piperazin-1-yl)propan-2-ol]
